Laboratory results: ChEMBL document CHEMBL2440076, “New triarylpyrazoles as broad-spectrum anticancer agents: design, synthesis, and biological evaluation” (Eur J Med Chem, 2013)

Columns and labels:
Type in all cases: functional
SF-268 = experiment: Growth inhibition of human SF268 cells assessed as cell growth at 5X10'-9 M after 48 hrs by sulforhodamine B assay; settings: SF-268, 48 h, read-out: Activity
KM12 = experiment: Growth inhibition of human KM12 cells assessed as cell growth at 5X10'-9 M after 48 hrs by sulforhodamine B assay; settings: KM12, 48 h, read-out: Activity
SF-539 [1] = experiment: Growth inhibition of human SF539 cells assessed as cell growth at 5X10'-5 M after 48 hrs by sulforhodamine B assay; settings: SF-539, 48 h, read-out: Activity
HL-60(TB) [2] = experiment: Growth inhibition of human HL-60(TB) cells assessed as cell growth at 5X10'-5 M after 48 hrs by sulforhodamine B assay; settings: HL-60, 48 h, read-out: Activity
CCRF-CEM = experiment: Growth inhibition of human CCRF-CEM cells assessed as cell growth at 5X10'-5 M after 48 hrs by sulforhodamine B assay; settings: read-out: Activity
RXF 393 [3] = experiment: Growth inhibition of human RXF393 cells assessed as cell growth at 5X10'-6 M after 48 hrs by sulforhodamine B assay; settings: RXF 393, 48 h, read-out: Activity
786-0 = experiment: Growth inhibition of human 786-0 cells assessed as cell growth at 5X10'-6 M after 48 hrs by sulforhodamine B assay; settings: 786-0, 48 h, read-out: Activity
OVCAR-3 = experiment: Growth inhibition of human OVCAR3 cells assessed as cell growth at 5X10'-6 M after 48 hrs by sulforhodamine B assay; settings: OVCAR-3, 48 h, read-out: Activity
UACC-62 = experiment: Growth inhibition of human UACC62 cells assessed as cell growth at 5X10'-6 M after 48 hrs by sulforhodamine B assay; settings: UACC-62, 48 h, read-out: Activity
M14 = experiment: Growth inhibition of human M14 cells assessed as cell growth at 5X10'-6 M after 48 hrs by sulforhodamine B assay; settings: M14, 48 h, read-out: Activity
NCI-H322M = experiment: Growth inhibition of human NCI-H322M cells assessed as cell growth at 5X10'-9 M after 48 hrs by sulforhodamine B assay; settings: read-out: Activity
NCI-H226 = experiment: Growth inhibition of human NCI-H226 cells assessed as cell growth at 5X10'-9 M after 48 hrs by sulforhodamine B assay; settings: NCI-H226, 48 h, read-out: Activity
MOLT-4 = experiment: Growth inhibition of human MOLT4 cells assessed as cell growth at 5X10'-9 M after 48 hrs by sulforhodamine B assay; settings: MOLT-4, 48 h, read-out: Activity
SF-539 [4] = experiment: Growth inhibition of human SF539 cells assessed as cell growth at 5X10'-6 M after 48 hrs by sulforhodamine B assay; settings: SF-539, 48 h, read-out: Activity
[5] = Growth inhibition of human HCC2998 cells assessed as cell growth at 5X10'-6 M after 48 hrs by sulforhodamine B assay; settings: HCC 2998, 48 h, read-out: Activity
CAKI-1 = experiment: Growth inhibition of human CAKI-1 cells assessed as cell growth at 5X10'-7 M after 48 hrs by sulforhodamine B assay; settings: CAKI-1, 48 h, read-out: Activity
MDA-MB-435 = experiment: Growth inhibition of human MDA-MB-435 cells assessed as cell growth at 5X10'-7 M after 48 hrs by sulforhodamine B assay; settings: MDA-MB-435, 48 h, read-out: Activity
HT-29 = experiment: Growth inhibition of human HT-29 cells assessed as cell growth at 5X10'-7 M after 48 hrs by sulforhodamine B assay; settings: HT-29, 48 h, read-out: Activity
A549 = experiment: Growth inhibition of human A549/ATCC cells assessed as cell growth at 5X10'-7 M after 48 hrs by sulforhodamine B assay; settings: A549, 48 h, read-out: Activity
SR = experiment: Growth inhibition of human SR cells assessed as cell growth at 5X10'-7 M after 48 hrs by sulforhodamine B assay; settings: read-out: Activity
UO-31 = experiment: Growth inhibition of human UO31 cells assessed as cell growth at 5X10'-8 M after 48 hrs by sulforhodamine B assay; settings: UO-31, 48 h, read-out: Activity
RXF 393 [6] = experiment: Growth inhibition of human RXF393 cells assessed as cell growth at 5X10'-8 M after 48 hrs by sulforhodamine B assay; settings: RXF 393, 48 h, read-out: Activity
ACHN = experiment: Growth inhibition of human ACHN cells assessed as cell growth at 5X10'-8 M after 48 hrs by sulforhodamine B assay; settings: read-out: Activity
UACC-257 = experiment: Growth inhibition of human UACC257 cells assessed as cell growth at 5X10'-8 M after 48 hrs by sulforhodamine B assay; settings: UACC-257, 48 h, read-out: Activity
SK-MEL-5 = experiment: Growth inhibition of human SK-MEL-5 cells assessed as cell growth at 5X10'-8 M after 48 hrs by sulforhodamine B assay; settings: SK-MEL-5, 48 h, read-out: Activity
U-251 = experiment: Growth inhibition of human U251 cells assessed as cell growth at 5X10'-8 M after 48 hrs by sulforhodamine B assay; settings: U-251, 48 h, read-out: Activity
SNB-75 = experiment: Growth inhibition of human SNB75 cells assessed as cell growth at 5X10'-8 M after 48 hrs by sulforhodamine B assay; settings: SNB-75, 48 h, read-out: Activity
T47D = experiment: Growth inhibition of human T47D cells assessed as cell growth at 5X10'-5 M after 48 hrs by sulforhodamine B assay; settings: read-out: Activity
DU-145 = experiment: Growth inhibition of human DU145 cells assessed as cell growth at 5X10'-5 M after 48 hrs by sulforhodamine B assay; settings: DU-145, 48 h, read-out: Activity
A498 = experiment: Growth inhibition of human A498 cells assessed as cell growth at 5X10'-5 M after 48 hrs by sulforhodamine B assay; settings: A498, 48 h, read-out: Activity
HCT-15 = experiment: Growth inhibition of human HCT15 cells assessed as cell growth at 5X10'-8 M after 48 hrs by sulforhodamine B assay; settings: HCT-15, 48 h, read-out: Activity
HL-60(TB) [7] = experiment: Growth inhibition of human HL-60(TB) cells assessed as cell growth at 5X10'-8 M after 48 hrs by sulforhodamine B assay; settings: HL-60, 48 h, read-out: Activity
TK-10 = experiment: Growth inhibition of human TK10 cells assessed as cell growth at 5X10'-9 M after 48 hrs by sulforhodamine B assay; settings: TK-10, 48 h, read-out: Activity
RXF 393 [8] = experiment: Growth inhibition of human RXF393 cells assessed as cell growth at 5X10'-9 M after 48 hrs by sulforhodamine B assay; settings: RXF 393, 48 h, read-out: Activity
OVCAR-8 = experiment: Growth inhibition of human OVCAR8 cells assessed as cell growth at 5X10'-9 M after 48 hrs by sulforhodamine B assay; settings: OVCAR-8, 48 h, read-out: Activity
SW-620 = experiment: Growth inhibition of human SW620 cells assessed as cell growth at 5X10'-9 M after 48 hrs by sulforhodamine B assay; settings: SW-620, 48 h, read-out: Activity

SMILES | growth at 0.005 µM (SF-268) [%] | growth at 0.005 µM (KM12) [%] | growth at 50 µM (SF-539 [1]) [%] | growth at 50 µM (HL-60(TB) [2]) [%] | growth at 50 µM (CCRF-CEM) [%] | growth at 5 µM (RXF 393 [3]) [%] | growth at 5 µM (786-0) [%] | growth at 5 µM (OVCAR-3) [%] | growth at 5 µM (UACC-62) [%] | growth at 5 µM (M14) [%] | growth at 0.005 µM (NCI-H322M) [%] | growth at 0.005 µM (NCI-H226) [%] | growth at 0.005 µM (MOLT-4) [%] | growth at 5 µM (SF-539 [4]) [%] | growth at 5 µM [5] [%] | growth at 0.5 µM (CAKI-1) [%] | growth at 0.5 µM (MDA-MB-435) [%] | growth at 0.5 µM (HT-29) [%] | growth at 0.5 µM (A549) [%] | growth at 0.5 µM (SR) [%] | also measured
COc1cc(-c2nn(-c3cccc(NC(=O)Nc4cc(C(F)(F)F)cc(C(F)(F)F)c4)c3)cc2-c2ccncc2)ccc1Cl | 100 | 103 | -78 | 6 | -8 | -51 | -60 | -69 | -66 | -29 | 97 | 97 | 104 | -74 | -70 | 80 | 85 | 70 | 52 | 80 | growth at 0.05 µM (UO-31): 94%; growth at 0.05 µM (RXF 393 [6]): 92%; growth at 0.05 µM (ACHN): 100%; growth at 0.05 µM (UACC-257): 98%; growth at 0.05 µM (SK-MEL-5): 95%; growth at 0.05 µM (U-251): 94%; growth at 0.05 µM (SNB-75): 90%; growth at 50 µM (T47D): 5%; growth at 50 µM (DU-145): -80%; growth at 50 µM (A498): -89%; growth at 0.05 µM (HCT-15): 97%; growth at 0.05 µM (HL-60(TB) [7]): 98%; growth at 0.005 µM (TK-10): 94%; growth at 0.005 µM (RXF 393 [8]): 98%; growth at 0.005 µM (OVCAR-8): 101%; growth at 0.005 µM (SW-620): 98%
COc1cc(-c2nn(-c3cccc(NC(=O)c4cccc(C(F)(F)F)c4)c3)cc2-c2ccncc2)ccc1Cl | 94 | 100 | -23 | 5 | 4 | -17 | 27 | -28 | 27 | 11 | 91 | 95 | 99 | -41 | 21 | 90 | 69 | 86 | 91 | 65 | growth at 0.05 µM (UO-31): 75%; growth at 0.05 µM (RXF 393 [6]): 99%; growth at 0.05 µM (ACHN): 103%; growth at 0.05 µM (UACC-257): 99%; growth at 0.05 µM (SK-MEL-5): 97%; growth at 0.05 µM (U-251): 94%; growth at 0.05 µM (SNB-75): 89%; growth at 50 µM (T47D): 21%; growth at 50 µM (DU-145): -4%; growth at 50 µM (A498): -28%; growth at 0.05 µM (HCT-15): 96%; growth at 0.05 µM (HL-60(TB) [7]): 92%; growth at 0.005 µM (TK-10): 95%; growth at 0.005 µM (RXF 393 [8]): 99%; growth at 0.005 µM (OVCAR-8): 97%; growth at 0.005 µM (SW-620): 99%
COc1cc(-c2nn(-c3cccc(NC(=O)Nc4ccc(Cl)c(Cl)c4)c3)cc2-c2ccncc2)ccc1Cl | 100 | 103 | -37 | 3 | 2 | -34 | -5 | -34 | -56 | -29 | 104 | 98 | 103 | -21 | 2 | 84 | 84 | 81 | 60 | 78 | growth at 0.05 µM (UO-31): 88%; growth at 0.05 µM (RXF 393 [6]): 94%; growth at 0.05 µM (ACHN): 98%; growth at 0.05 µM (UACC-257): 88%; growth at 0.05 µM (SK-MEL-5): 92%; growth at 0.05 µM (U-251): 93%; growth at 0.05 µM (SNB-75): 83%; growth at 50 µM (T47D): 9%; growth at 50 µM (DU-145): -1%; growth at 50 µM (A498): -11%; growth at 0.05 µM (HCT-15): 95%; growth at 0.05 µM (HL-60(TB) [7]): 114%; growth at 0.005 µM (TK-10): 100%; growth at 0.005 µM (RXF 393 [8]): 97%; growth at 0.005 µM (OVCAR-8): 99%; growth at 0.005 µM (SW-620): 97%
COc1cc(-c2nn(-c3cccc(NC(=O)Nc4cccc(C(F)(F)F)c4)c3)cc2-c2ccncc2)ccc1Cl | 97 | 104 | -58 | 5 | 3 | -52 | -9 | -42 | -73 | -54 | 89 | 100 | 94 | -36 | -23 | 79 | 80 | 72 | 62 | 75 | growth at 0.05 µM (UO-31): 79%; growth at 0.05 µM (RXF 393 [6]): 101%; growth at 0.05 µM (ACHN): 97%; growth at 0.05 µM (UACC-257): 98%; growth at 0.05 µM (SK-MEL-5): 95%; growth at 0.05 µM (U-251): 98%; growth at 0.05 µM (SNB-75): 95%; growth at 50 µM (T47D): 1%; growth at 50 µM (DU-145): 1%; growth at 50 µM (A498): -20%; growth at 0.05 µM (HCT-15): 94%; growth at 0.05 µM (HL-60(TB) [7]): 94%; growth at 0.005 µM (TK-10): 94%; growth at 0.005 µM (RXF 393 [8]): 100%; growth at 0.005 µM (OVCAR-8): 99%; growth at 0.005 µM (SW-620): 98%
O=C(Nc1cccc(-n2cc(-c3ccncc3)c(-c3ccc(Cl)c(O)c3)n2)c1)c1ccc(N2CCOCC2)c(C(F)(F)F)c1 | 90 | 94 | -18 | 4 | 14 | -18 | 35 | 49 | 39 | 18 | 100 | 98 | 99 | 21 | 53 | 98 | 85 | 102 | 92 | 84 | growth at 0.05 µM (UO-31): 88%; growth at 0.05 µM (RXF 393 [6]): 101%; growth at 0.05 µM (ACHN): 99%; growth at 0.05 µM (UACC-257): 104%; growth at 0.05 µM (SK-MEL-5): 93%; growth at 0.05 µM (U-251): 101%; growth at 0.05 µM (SNB-75): 88%; growth at 50 µM (T47D): 44%; growth at 50 µM (DU-145): 26%; growth at 50 µM (A498): 6%; growth at 0.05 µM (HCT-15): 99%; growth at 0.05 µM (HL-60(TB) [7]): 117%; growth at 0.005 µM (TK-10): 94%; growth at 0.005 µM (RXF 393 [8]): 105%; growth at 0.005 µM (OVCAR-8): 101%; growth at 0.005 µM (SW-620): 102%
